What was measured:
Type in all cases: in vivo
Anthonomus grandis = assay: Boll weevil (Anthonomus grandis) control, 96-well microtiter plate insect diet with eggs; settings: 120 h, read-out: mortality in comparison with untreated controls
Method: For evaluating control of boll weevil, the test unit consisted of 96-well-microtiter plates containing an insect diet and 5-10 A. grandis eggs.
The compounds were formulated using a solution containing 75% v/v water and 25% v/v DMSO. Different concentrations of formulated compounds were sprayed onto the insect diet at 5µl, using a custom-built micro atomizer, at two replications.
After application, microtiter plates were incubated at about 25 ± 1°C and about 75 ± 5 % relative humidity for 5 days. Egg and larval mortality were then visually assessed.

Aedes aegypti = assay: whole plant or invertebrate; settings: 48 h, larval mortality, 2 days, read-out: mortality in comparison with untreated controls
Method: For evaluating control of Yellow Fever Mosquito, the test unit consisted of 96-well-microtiter plates containing 200µl of tap water per well and 5-15 freshly hatched A. aegypti larvae. The active compounds were formulated using a solution containing 75% (v/v) water and 25% (v/v) DMSO. Different concentrations of formulated compounds or mixtures were sprayed onto the insect diet at 2.5µl, using a custom-built micro atomizer, at two replications.
After application, microtiter plates were incubated at 28 ± 1°C, 80 ± 5 % RH for 2 days. Larval mortality was then visually assessed.

Plutella xylostella = assay: Diamond back moth (Plutella xylostella) control, 96-well microtiter plate insect diet with eggs; settings: 120 h, read-out: mortality in comparison with untreated controls
Method: For evaluating control of […] (Plutella xylostella) the test unit consisted of 96-well-microtiter plates containing an insect diet and 15-25 P. xylostella eggs.
The compounds or mixtures were formulated using a solution containing 75% water and 25% DMSO. Different concentrations of formulated compounds or mixtures were sprayed onto the insect diet at 5µl, using a custom-built micro atomizer, at two replications.
After application, microtiter plates were incubated at 28 ± 1°C, 80 ± 5 % RH for 5 days. Egg and larval mortality was then visually assessed.

Heliothis virescens = assay: Tobacco budworm (Heliothis virescens) control, 96-well microtiter plate insect diet with eggs; settings: 120 h, read-out: mortality in comparison with untreated controls
Method: For evaluating control of Tobacco Budworm, the test unit consisted of 96-well-microtiter plates containing an insect diet and 15-25 H. virescens eggs. The compounds were formulated using a solution containing 75% v/v water and 25% v/v DMSO. Different concentrations of formulated compounds were sprayed onto the insect diet at 10µl, using a custom-built micro atomizer, at two replications. After application, microtiter plates were incubated at about 28 ± 1°C and about 80 ± 5 % relative humidity for 5 days. Egg and larval mortality was then visually assessed.

Myzus persicae = assay: Green peach aphid (Myzus persicae), mixed life stages, systemic test via artificial diet under membrane; settings: 72 h, read-out: mortality in comparison with untreated controls
Description: For evaluating control of Green Peach Aphid through systemic means the test unit consisted of 96-well-microtiter plates containing liquid artificial diet under an artificial membrane. The compounds were formulated using a solution containing 75% v/v water and 25% v/v DMSO. Different concentrations of formulated compounds were pipetted into the aphid diet, using a custom-built pipette, at two replications. After application, 5 - 8 adult aphids were placed on the artificial membrane inside the microtiter plate wells. The aphids were then allowed to suck on the treated aphid diet and incubated at about 23 ± 1°C and about 50 ± 5 % relative humidity for 3 days. Aphid mortality and fecundity was then visually assessed.

Measured: mortality at 800 ppm

N#Cc1ccc(C(=O)NCc2cc(NC3=NOC(c4ccc(F)c(Cl)c4)(C(F)(F)F)C3)ccc2Cl)s1 (stereo not drawn) [I-34]
≥ 75%: Anthonomus grandis | Aedes aegypti | Plutella xylostella

O=C(NCc1cc(NC2=NOC(c3ccc(F)c(Cl)c3)(C(F)(F)F)C2)ccc1Cl)C1CCC1 (stereo not drawn) [I-23]
≥ 75%: Heliothis virescens | Anthonomus grandis | Aedes aegypti | Myzus persicae | Plutella xylostella

CON=CC(=O)NCc1cc(NC2=NOC(c3cc(Cl)cc(Cl)c3)(C(F)(F)F)C2)ccc1F (stereo not drawn) [I-12]
≥ 75%: Heliothis virescens | Anthonomus grandis | Myzus persicae | Plutella xylostella

O=C(Cn1cncn1)NCc1cc(NC2=NOC(c3ccc(F)c(Cl)c3)(C(F)(F)F)C2)ccc1Cl (stereo not drawn) [I-40]
≥ 75%: Anthonomus grandis | Aedes aegypti | Myzus persicae | Plutella xylostella

CN(Cc1cc(NC2=NOC(c3cc(Cl)c(F)c(Cl)c3)(C(F)(F)F)C2)ccc1F)C(=O)C1CC1 (stereo not drawn) [I-17]
≥ 75%: Heliothis virescens | Anthonomus grandis | Aedes aegypti | Plutella xylostella

CCC(=O)NCc1cc(NC2=NOC(c3cc(Cl)cc(Cl)c3)(C(F)(F)F)C2)ccc1F (stereo not drawn) [I-2]
≥ 75%: Heliothis virescens | Anthonomus grandis | Myzus persicae | Plutella xylostella

O=C(NCc1cc(OC2=NOC(c3cc(Cl)c(F)c(Cl)c3)(C(F)(F)F)C2)ccc1F)C1CC1 (stereo not drawn) [I-22]
≥ 75%: Heliothis virescens | Anthonomus grandis | Aedes aegypti | Myzus persicae | Plutella xylostella

O=C(NCc1cc(NC2=NOC(c3cc(Cl)cc(Cl)c3)(C(F)(F)F)C2)ccc1F)c1ccccn1 (stereo not drawn) [I-11]
≥ 75%: Anthonomus grandis | Plutella xylostella

N#CCC(=O)NCc1cc(NC2=NOC(c3ccc(F)c(Cl)c3)(C(F)(F)F)C2)ccc1Cl (stereo not drawn) [I-51]
≥ 75%: Anthonomus grandis | Aedes aegypti | Myzus persicae | Plutella xylostella

CCS(=O)(=O)NCc1cc(NC2=NOC(c3cc(Cl)cc(Cl)c3)(C(F)(F)F)C2)ccc1F (stereo not drawn) [I-13]
≥ 75%: Heliothis virescens | Anthonomus grandis | Aedes aegypti | Myzus persicae | Plutella xylostella

O=C(CC1OCCO1)NCc1cc(NC2=NOC(c3ccc(F)c(Cl)c3)(C(F)(F)F)C2)ccc1Cl (stereo not drawn) [I-33]
≥ 75%: Anthonomus grandis | Aedes aegypti | Plutella xylostella

Cn1ncc(C#N)c1C(=O)NCc1cc(NC2=NOC(c3ccc(F)c(Cl)c3)(C(F)(F)F)C2)ccc1Cl (stereo not drawn) [I-37]
≥ 75%: Aedes aegypti | Plutella xylostella

CS(=O)(=O)NCC(=O)NCc1cc(NC2=NOC(c3ccc(F)c(Cl)c3)(C(F)(F)F)C2)ccc1Cl (stereo not drawn) [I-47]
≥ 75%: Anthonomus grandis | Aedes aegypti | Myzus persicae | Plutella xylostella

CC(C)CC(=O)NCc1cc(NC2=NOC(c3ccc(F)c(Cl)c3)(C(F)(F)F)C2)ccc1Cl (stereo not drawn) [I-28]
≥ 75%: Heliothis virescens | Anthonomus grandis | Aedes aegypti | Myzus persicae | Plutella xylostella

O=C(CC1CCS(=O)(=O)C1)NCc1cc(NC2=NOC(c3ccc(F)c(Cl)c3)(C(F)(F)F)C2)ccc1Cl (stereo not drawn) [I-49]
≥ 75%: Anthonomus grandis | Aedes aegypti | Myzus persicae

O=C(NCc1cc(NC2=NOC(c3ccc(F)c(Cl)c3)(C(F)(F)F)C2)ccc1Cl)C1CC1 (stereo not drawn) [I-21]
≥ 75%: Heliothis virescens | Anthonomus grandis | Aedes aegypti | Myzus persicae | Plutella xylostella

O=C(NCc1cc(NC2=NOC(c3cc(Cl)cc(Cl)c3)(C(F)(F)Cl)C2)ccc1F)C1CC1 (stereo not drawn) [I-43]
≥ 75%: Heliothis virescens | Anthonomus grandis | Aedes aegypti | Myzus persicae | Plutella xylostella

COCC(=O)NCc1cc(NC2=NOC(c3cc(Cl)cc(Cl)c3)(C(F)(F)F)C2)ccc1F (stereo not drawn) [I-9]
≥ 75%: Anthonomus grandis | Myzus persicae

CCC(=O)NCc1cc(NC2=NOC(c3ccc(F)c(Cl)c3)(C(F)(F)F)C2)ccc1Cl (stereo not drawn) [I-50]
≥ 75%: Heliothis virescens | Anthonomus grandis | Aedes aegypti | Myzus persicae | Plutella xylostella

O=C(NCc1cc(NC2=NOC(c3cc(Cl)cc(Cl)c3)(C(F)(F)F)C2)ccc1F)c1ncon1 (stereo not drawn) [I-7]
≥ 75%: Anthonomus grandis

O=C(NCc1cc(NC2=NOC(c3cc(Cl)c(F)c(Cl)c3)(C(F)(F)F)C2)ccc1Cl)C1CC1 (stereo not drawn) [I-14]
≥ 75%: Heliothis virescens | Anthonomus grandis | Aedes aegypti | Myzus persicae | Plutella xylostella

O=C(NCc1cc(NC2=NOC(c3ccc(F)c(Cl)c3)(C(F)(F)F)C2)ccc1Cl)C1CSC1 (stereo not drawn) [I-45]
≥ 75%: Heliothis virescens | Anthonomus grandis | Aedes aegypti | Myzus persicae | Plutella xylostella

O=C(NCc1cc(NC2=NOC(c3cc(Cl)c(F)c(Cl)c3)(C(F)(F)F)C2)ccc1F)C1CC1 (stereo not drawn) [I-16]
≥ 75%: Heliothis virescens | Anthonomus grandis | Aedes aegypti | Myzus persicae | Plutella xylostella

O=C(NCc1cc(NC2=NOC(c3cc(Cl)c(F)c(Cl)c3)(C(F)(F)F)C2)ccc1OC(F)(F)F)C1CC1 (stereo not drawn) [I-18]
≥ 75%: Heliothis virescens | Anthonomus grandis | Aedes aegypti | Myzus persicae | Plutella xylostella

O=C(NCc1cc(NC2=NOC(c3ccc(F)c(Cl)c3)(C(F)(F)F)C2)ccc1Cl)C1CC1(F)F (stereo not drawn) [I-48]
≥ 75%: Heliothis virescens | Anthonomus grandis | Aedes aegypti | Myzus persicae | Plutella xylostella

COCCC(=O)NCc1cc(NC2=NOC(c3cc(Cl)cc(Cl)c3)(C(F)(F)F)C2)ccc1F (stereo not drawn) [I-3]
≥ 75%: Heliothis virescens | Anthonomus grandis | Aedes aegypti | Myzus persicae

O=C(NCc1cc(NC2=NOC(c3ccc(F)c(Cl)c3)(C(F)(F)F)C2)ccc1Cl)C1CC=CC1 (stereo not drawn) [I-29]
≥ 75%: Anthonomus grandis | Aedes aegypti | Myzus persicae | Plutella xylostella

O=C(CN1CCCC1=O)NCc1cc(NC2=NOC(c3ccc(F)c(Cl)c3)(C(F)(F)F)C2)ccc1Cl (stereo not drawn) [I-31]
≥ 75%: Aedes aegypti | Myzus persicae

O=C(CC1CC1)NCc1cc(NC2=NOC(c3cc(Cl)cc(Cl)c3)(C(F)(F)F)C2)ccc1F (stereo not drawn) [I-6]
≥ 75%: Heliothis virescens | Anthonomus grandis | Aedes aegypti | Myzus persicae

O=C(Cn1cccn1)NCc1cc(NC2=NOC(c3ccc(F)c(Cl)c3)(C(F)(F)F)C2)ccc1Cl (stereo not drawn) [I-38]
≥ 75%: Anthonomus grandis | Aedes aegypti | Plutella xylostella

O=C(CNC(=O)C1CC1)NCc1cc(NC2=NOC(c3ccc(F)c(Cl)c3)(C(F)(F)F)C2)ccc1Cl (stereo not drawn) [I-26]
≥ 75%: Anthonomus grandis | Aedes aegypti | Myzus persicae | Plutella xylostella

CS(=O)(=O)CC(=O)NCc1cc(NC2=NOC(c3cc(Cl)cc(Cl)c3)(C(F)(F)F)C2)ccc1F (stereo not drawn) [I-4]
≥ 75%: Heliothis virescens | Anthonomus grandis | Aedes aegypti | Myzus persicae

O=C(Cc1ccsc1)NCc1cc(NC2=NOC(c3ccc(F)c(Cl)c3)(C(F)(F)F)C2)ccc1Cl (stereo not drawn) [I-44]
≥ 75%: Anthonomus grandis | Aedes aegypti | Myzus persicae | Plutella xylostella

CS(=O)(=O)N1CC(C(=O)NCc2cc(NC3=NOC(c4ccc(F)c(Cl)c4)(C(F)(F)F)C3)ccc2Cl)C1 (stereo not drawn) [I-46]
≥ 75%: Anthonomus grandis | Aedes aegypti | Myzus persicae | Plutella xylostella

O=C(Cc1ccccc1)NCc1cc(NC2=NOC(c3ccc(F)c(Cl)c3)(C(F)(F)F)C2)ccc1Cl (stereo not drawn) [I-27]
≥ 75%: Aedes aegypti

COC(=O)N1CCCC1C(=O)NCc1cc(NC2=NOC(c3cc(Cl)cc(Cl)c3)(C(F)(F)F)C2)ccc1F (stereo not drawn) [I-10]
≥ 75%: Anthonomus grandis

Source: patent EP4342885A1, “N-(3-(AMINOMETHYL)-PHENYL)-5-(4-PHENYL)-5-(TRIFLUOROMETHYL)-4,5-DIHYDROISOXAZOL-3-AMINE DERIVATIVES AND SIMILAR COMPOUNDS AS PESTICIDES” (priority 2022, dated 2024)
